Patent US7285548B2, “Urea substituted benzothiazoles” (Hoffmann-La Roche Inc., priority 2003, dated 2007)

How the values were obtained:
[1] = target: T1, human adenosine A2A receptor (Homo sapiens, UniProt P29274); assay: [3H]-SCH-58261 binding assay, human adenosine A2A receptor (CHO cell membranes, SPA); details: recombinant human A2A receptor in CHO membranes; [3H]-SCH-58261 1 nM; Ki by Cheng-Prussoff equation; read-out: hA2 (pKi) (converted)
T1 construct: expressed in transfected cells; host or cells: CHO cells, semliki forest virus expression system; membrane preparation
T1 sequence (P29274 whole entry): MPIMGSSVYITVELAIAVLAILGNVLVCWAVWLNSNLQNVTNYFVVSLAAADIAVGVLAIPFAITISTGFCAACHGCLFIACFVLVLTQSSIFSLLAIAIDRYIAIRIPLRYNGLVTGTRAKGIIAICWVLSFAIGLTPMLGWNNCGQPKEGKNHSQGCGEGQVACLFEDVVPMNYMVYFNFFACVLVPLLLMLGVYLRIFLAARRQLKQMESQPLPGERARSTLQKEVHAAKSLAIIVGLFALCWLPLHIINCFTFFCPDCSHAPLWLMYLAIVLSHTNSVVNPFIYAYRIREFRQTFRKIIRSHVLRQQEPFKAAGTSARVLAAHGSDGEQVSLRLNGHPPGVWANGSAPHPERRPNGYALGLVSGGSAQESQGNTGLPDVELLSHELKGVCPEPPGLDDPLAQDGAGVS
Procedure: Human Adenosine A2A Receptor
The human adenosine A2A receptor was recombinantly expressed in Chinese hamster ovary (CHO) cells using the semliki forest virus expression system. Cells were harvested, washed twice by centrifugation, homogenized and again washed by centrifugation. The final washed membrane pellet was suspended in a Tris (50 mM) buffer containing 120 mM NaCl, 5 mM KCl, 2 mM CaCl2 and 10 mM MgCl2 (pH 7.4) (buffer A). The [^3H]-SCH-58261 (Dionisotti et al., 1997, Br J Pharmacol 121, 353; 1nM) binding assay was carried out in 96-well plates in the presence of 2.5 μg of membrane protein, 0.5 mg of Ysi-poly-l-lysine SPA beads and 0.1 U adenosine deaminase in a final volume of 200 μl of buffer A. Non-specific binding was defined using xanthine amine congener (XAC; 2 μM). Compounds were tested at 10 concentrations from 10 μM-0.3 nM. All assays were conducted in duplicate and repeated at least two times. Assay plates were incubated for 1 hour at room temperature before centrifugation and then bound ligand determined using a Packard Topcount scintillation counter. IC50 values were calculated using a non-linear curve fitting program and Ki values calculated using the Cheng-Prussoff equation.

| Ki [1] [nM] | melting point | SMILES |
| --- | --- | --- |
| 7.94 | 189 °C | COc1ccc(N2CCOCC2)c2sc(NC(=O)N(C)C3CC4CC3CC4O)nc12 (racemic) [Example 10, (rac)-1-(5-exo-Hydroxy-bicyclo[2.2.1]hept-2-exo-yl)-3-(4-methoxy-7-morpholin-4-yl-benzothiazol-2-yl)-1-methyl-urea] |
| 3.16 | 202 to 204 °C | COc1ccc(N2CCOCC2)c2sc(NC(=O)N(C)C3CC4CCC3O4)nc12 (single isomer, unassigned) [Example 7, (exo)-(+)-3-(4-Methoxy-7-morpholin-4-yl-benzothiazol-2-yl)-1-methyl-1-(7-oxa-bicyclo[2.2.1]hept-2-yl)-urea] |
| 50.1 | 165 to 176 °C | COc1ccc(N2CCOCC2)c2sc(NC(=O)N(C)C34CC5CC(CC(C5)C3)C4)nc12 [Example 12, 1-Adamantan-1-yl-3-(4-methoxy-7-morpholin-4-yl-benzothiazol-2-yl)-1-methyl-urea] |
| 7.94 | 199 to 202 °C | COc1ccc(N2CCOCC2)c2sc(NC(=O)N(C)C3CC4CCC3C4)nc12 (racemic) [Example 6, 1-(endo)-(rac)-Bicyclo[2.2.1]hept-2-yl-3-(4-methoxy-7-morpholin-4-yl-benzothiazol-2-yl)-1-methyl-urea] |

Further lines, the molecule ahead of its results:

| SMILES | Ki [1] [nM] | melting point |
| --- | --- | --- |
| COc1ccc(N2CCOCC2)c2sc(NC(=O)N(C)C3CC4CCC3O4)nc12 (single isomer, unassigned) [Example 8, (exo)-(−)-3-(4-Methoxy-7-morpholin-4-yl-benzothiazol-2-yl)-1-methyl-1-(7-oxa-bicyclo[2.2.1]hept-2-yl)-urea] | 10 | 202 to 203 °C |
| COc1ccc(N2CCOCC2)c2sc(NC(=O)N3CC4CCC(C3)O4)nc12 [Example 13, 8-Oxa-3-aza-bicyclo[3.2.1]octane-3-carboxylic acid (4-methoxy-7-morpholin-4-yl-benzothiazol-2-yl)-amide] | 10 | 229 to 231 °C |
| COc1ccc(N2CCOCC2)c2sc(NC(=O)N(C)[C@H]3CC[C@H](C)CC3)nc12 [Example 2, (trans)-3-(4-Methoxy-7-morpholin-4-yl-benzothiazol-2-yl)-1-methyl-1-(4-methyl-cyclohexyl)-urea] | 15.8 | 171 to 173 °C |
| COc1ccc(N2CCOCC2)c2sc(NC(=O)N(C)[C@H]3CC[C@H](CO)CC3)nc12 [Example 3, (trans)-1-(4-Hydroxymethyl-cyclohexyl)-3-(4-methoxy-7-morpholin-4-yl-benzothiazol-2-yl)-1-methyl-urea] | 15.8 | 190 °C (dec.) |
| COC[C@H]1CC[C@H](N(C)C(=O)Nc2nc3c(OC)ccc(N4CCOCC4)c3s2)CC1 [Example 4, (trans)-1-(4-Methoxymethyl-cyclohexyl)-3-(4-methoxy-7-morpholin-4-yl-benzothiazol-2-yl)-1-methyl-urea] | 20 | 141 to 143 °C |
| COc1ccc(N2CCOCC2)c2sc(NC(=O)N(C)C3CCC(CO)C3)nc12 (racemic) [Example 5, (rac),(cis)-1-(3-Hydroxymethyl-cyclopentyl)-3-(4-methoxy-7-morpholin-4-yl-benzothiazol-2-yl)-1-methyl-urea] | 3.98 | 115 to 118 °C |
| COc1ccc(N2CCOCC2)c2sc(NC(=O)N(C)C3CC4CCC3O4)nc12 (racemic) [Example 9, (rac)-(endo)-3-(4-Methoxy-7-morpholin-4-yl-benzothiazol-2-yl)-1-methyl-1-(7-oxa-bicyclo[2.2.1]hept-2-yl)-urea] | 12.6 | 191 to 193 °C |
| COc1ccc(N2CCOCC2)c2sc(NC(=O)N(C)C3CCC(C(F)(F)F)CC3)nc12 (stereo not drawn) [Example 1, 3-(4-Methoxy-7-morpholin-4-yl-benzothiazol-2-yl)-1-methyl-1-(4-trifluoromethyl-cyclohexyl)-urea] | 20 | 157 to 167 °C |
